Reference: US10143704B2, “Methods for treating cancer” (Epizyme, Inc., priority 2013, dated 2018)

How the values were obtained:
[1] = tested on: MLL-r cells; assay: Pre-clinical study of EPZ-5676: methyl mark inhibition and cell killing; type: cell-based; details: pre-clinical study plots, FIGS. 3A-3D
[2] = tested on: patients with MLL-r and MLL-PTD; assay: Phase 1 dose escalation/expansion study of EPZ-5676 in leukemia patients; type: in vivo, human
Experimental: FIG. 1 is a summary of Phase 1 dose escalation study of EPZ-5676. […] The expansion stage of a Phase 1 study is enrolling adult patients with MLL-r and MLL-PTD who are being treated with 90 mg/m^2/day with uninterrupted administration.

What does the source list for `CC(C)N(C[C@H]1O[C@@H](n2cnc3c(N)ncnc32)[C@H](O)[C@@H]1O)[C@H]1C[C@@H](CCc2nc3cc(C(C)(C)C)ccc3[nH]2)C1` [Compound A2, (2R,3R,4S,5R)-2-(6-amino-9H-purin-9-yl)-5-((((1r,3S)-3-(2-(5-(tert-butyl)-1H-benzo[d]imidazol-2yl)ethyl)cyclobutyl)(isopropyl)amino)methyl)tetrahydrofuran-3,4-diol]?
effect of target methyl mark inhibition on cancer cells [1]: selective killing of genetically defined cancer cells; safety: drug-related treatment discontinuations ([2]; adult patients with MLL-r and MLL-PTD, 90 mg/m^2/day uninterrupted administration, expansion stage of Phase 1): no drug-related treatment discontinuations; effect on leukemic cells in patients (micrographs) ([2]; patients with MLL-r, FIGS. 8A-8F): differentiation effect
